Like-named read-outs stand apart in the source and are kept apart here.
Columns and labels:
[1] = system: H146, H1417 and H1963 cancer cell lines; type: cell-based, Human
Bcl-2 [2] = biological target: T1, Bcl-2 (Homo sapiens, UniProt P10415); assay: Fluorescence polarization-based; type: binding; conditions: for times less potent than 12 in binding to Bcl-2: compared with compound 12
Bcl-2 [3] = biological target: T1, Bcl-2; assay: Cell-free mitochondrial functional assay, Bcl-2; conditions: compared with compound 1
H146 cell line [4] = assay: Cell death induction by trypan blue assay; type: cell-based, Human; conditions: 24 h
H146 cancer cells = assay: Release of cytochrome C from mitochondria in cells; type: cell-based, Human; conditions: for Release of cytochrome C and cleavage of PARP at 30 nM: 2 h, H146 cells; for Release of cytochrome C from mitochondria in H146 cells: treatment as short as 2 h
H146 cell line [5] = assay: Western blotting of caspase-3 and PARP cleavage in cells; type: cell-based, Human; conditions: 24 h
SCID mice = assay: Toxicity in SCID mice; type: in vivo; conditions: 25 mg/kg, daily intravenous dosing, five days a week for 2 weeks
H146 xenograft model = assay: In vivo efficacy study, H146 xenograft model; conditions: 25 mg/kg daily i.v. 5 days a week for 2 weeks
Bcl-xL [6] = biological target: T2, Bcl-xL (Homo sapiens, UniProt Q07817); assay: Fluorescence polarization-based; type: binding
T2 sequence (Q07817 whole entry): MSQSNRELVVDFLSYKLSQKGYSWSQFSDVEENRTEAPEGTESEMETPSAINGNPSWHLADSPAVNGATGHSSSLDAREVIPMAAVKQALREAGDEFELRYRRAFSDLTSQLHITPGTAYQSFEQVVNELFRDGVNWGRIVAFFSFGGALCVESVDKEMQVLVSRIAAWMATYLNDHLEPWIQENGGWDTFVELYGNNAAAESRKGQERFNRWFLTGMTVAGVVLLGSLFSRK

[7] = system: H146 xenograft tumor tissues; assay: In vivo pharmacodynamic; set-up: species or system SCID mice; conditions: at its maximum tolerated dose (data not shown)
Bcl-xL [8] = biological target: T2, Bcl-xL; conditions: read-out: Ki, binding to Bcl-xL; previously reported; cited from earlier work
[9] = system: H1417 small-cell lung cancer cell line; assay: Cell growth inhibition, H1417; type: cell-based, Human
[10] = system: H146 small-cell lung cancer cell line; assay: Cell growth inhibition, H146; type: cell-based, Human
[11] = system: H1963 small-cell lung cancer cell line; assay: Cell growth inhibition, H1963; type: cell-based; conditions: read-out: Cell Growth Inhibition (IC50 ± SD) H1963

T1 sequence (P10415 whole entry): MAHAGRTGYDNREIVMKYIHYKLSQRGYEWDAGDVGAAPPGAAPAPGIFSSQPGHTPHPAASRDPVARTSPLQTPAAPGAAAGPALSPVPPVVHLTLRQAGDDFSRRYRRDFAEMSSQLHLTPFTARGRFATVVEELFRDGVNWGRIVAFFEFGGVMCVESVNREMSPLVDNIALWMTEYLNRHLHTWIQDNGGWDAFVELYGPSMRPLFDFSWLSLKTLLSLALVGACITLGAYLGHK

With `CNC(=O)c1c(-c2cccc(N3CCN(c4ccc(NS(=O)(=O)c5ccc(N[C@H](CCN(C)C)CSc6ccccc6)c([N+](=O)[O-])c5)cc4)CC3)c2)c(-c2ccc(Cl)cc2)n(C)c1C` [Compound 11, (R)-5-(4-Chlorophenyl)-4-(3-(4-(4-(4-((4-(dimethylamino)-1-(phenylthio)butan-2-yl)amino)-3-nitrophenylsulfonamido)phenyl)piperazin-1-yl)phenyl)-N,1,2-trimethyl-1H-pyrrole-3-carboxamide] the “times more potent than compound 10 in cell growth inhibition” value [1] was 2–4 times.

With `Cc1c(C(=O)O)c(-c2cccc(N3CCN(c4ccc(NS(=O)(=O)c5ccc(N[C@H](CCN(C)C)CSc6ccccc6)c([N+](=O)[O-])c5)cc4)CC3)c2)c(-c2ccc(Cl)cc2)n1C1CC1` [Compound 16, (R)-5-(4-Chlorophenyl)-1-cyclopropyl-4-(3-(4-(4-(4-((4-(dimethylamino)-1-(phenylthio)-butan-2-yl)amino)-3-nitrophenylsulfonamido)phenyl)piperazin-1-yl)phenyl)-2-methyl-1H-pyrrole-3-carboxylic acid] the “times less potent than 12 in binding to Bcl-2” value (Bcl-2 [2]) was 10 times.

In the case of `Cc1c(C(=O)NCCCN2CCN(C)CC2)c(-c2cccc(N3CCN(c4ccc(NS(=O)(=O)c5ccc(N[C@H](CCN(C)C)CSc6ccccc6)c([N+](=O)[O-])c5)cc4)CC3)c2)c(-c2ccc(Cl)cc2)n1C` [Compound 10, (R)-5-(4-Chlorophenyl)-4-(3-(4-(4-(4-((4-(dimethylamino)-1-(phenylthio)butan-2-yl)amino)-3-nitrophenylsulfonamido)phenyl)piperazin-1-yl)phenyl)-1,2-dimethyl-N-(3-(4-methylpiperazin-1-yl)propyl)-1H-pyrrole-3-carboxamide], the “times less potent than 1 in the Bcl-2 functional assay” value (Bcl-2 [3]) is reported as 3 times.

For `CCn1c(C)c(C(=O)O)c(-c2cccc(N3CCN(c4ccc(NS(=O)(=O)c5ccc(N[C@H](CCN(C)C)CSc6ccccc6)c([N+](=O)[O-])c5)cc4)CC3)c2)c1-c1ccc(Cl)cc1` [Compound 14, (R)-5-(4-Chlorophenyl)-4-(3-(4-(4-(4-((4-(dimethylamino)-1-(phenylthio)butan-2-yl)amino)-3-nitrophenylsulfonamido)phenyl)piperazin-1-yl)phenyl)-1-ethyl-2-methyl-1H-pyrrole-3-carboxylic acid], the “Cell death induction in H146 at 10 nM” value (H146 cell line [4]) was “induce robust cell death”, the “Cell death induction in H146” value (H146 cell line [4]) was “effectively induce cell death in H146 in a dose-dependent manner” and the “Release of cytochrome C and cleavage of PARP at 30 nM” value (H146 cancer cells) was “robust”. The “Release of cytochrome C from mitochondria in H146 cells” value (H146 cancer cells) was “induces a release of cytochrome C in a dose-dependent manner”, the “Cleavage of caspase-3 and PARP in H146” value (H146 cell line [5]) was “induce cleavage of caspase-3 and poly (ADP- ribose) polymerase (PARP) in a dose-dependent manner” and the “Tolerability in SCID mice” value (SCID mice) was “well tolerated”. For the same compound, the “Inhibition of tumor growth” value (H146 xenograft model) was “very effective in inhibition of tumor growth”, the “Maximum weight loss during the treatment” value (H146 xenograft model) was < 10% and the “Other signs of toxicity” value (H146 xenograft model) was “no other signs of toxicity observed”. The “Tumor regression during the treatment phase” value (H146 xenograft model) was “capable of achieving tumor regression”.

With `Cc1c(C(=O)O)c(-c2cccc(N3CCN(c4ccc(NS(=O)(=O)c5ccc(N[C@H](CCN(C)C)CSc6ccccc6)c([N+](=O)[O-])c5)cc4)CC3)c2)c(-c2ccc(Cl)cc2)n1C(C)C` [Compound 15, (R)-5-(4-Chlorophenyl)-4-(3-(4-(4-(4-((4-(dimethylamino)-1-(phenylthio)butan-2-yl)amino)-3-nitrophenylsulfonamido)phenyl)piperazin-1-yl)phenyl)-1-isopropyl-2-methyl-1H-pyrrole-3-carboxylic acid] the “Cell death induction in H146 at 10 nM” value (H146 cell line [4]) was “induce robust cell death”, the “Cell death induction in H146” value (H146 cell line [4]) was “effectively induce cell death in H146 in a dose-dependent manner” and the “Release of cytochrome C and cleavage of PARP at 30 nM” value (H146 cancer cells) was “robust”. The “Release of cytochrome C from mitochondria in H146 cells” value (H146 cancer cells) was “induces a release of cytochrome C in a dose-dependent manner”, the “Cleavage of caspase-3 and PARP in H146” value (H146 cell line [5]) was “induce cleavage of caspase-3 and poly (ADP- ribose) polymerase (PARP) in a dose-dependent manner” and the “Tolerability in SCID mice” value (SCID mice) was “toxic to the animals which had severe weight loss”. For the same compound, the “times more potent than compound 1 in cell growth inhibition” value ([1]; direct comparison) was 10–100 times.

For `Cc1c(C(=O)NCCCN2CCN(C)CC2)c(-c2ccccc2)c(-c2ccc(Cl)cc2)n1C` [Compound 8, 5-(4-Chlorophenyl)-1,2-dimethyl-N-(3-(4-methylpiperazin-1-yl)propyl)-4-phenyl-1H-pyrrole-3-carboxamide], the “times more potent than 7 in binding to Bcl-xL” value (Bcl-xL [6]; Ki compared with compound 7) was 2 times, the “Cellular activity (cell growth inhibition)” value [1] was “minimal cellular activity” and the “times more potent than 7 in binding to Bcl-2” value (Bcl-2 [2]; Ki compared with compound 7) was 2 times.

In the case of `CCc1c(-c2ccc(Cl)cc2)c(-c2cccc(N3CCN(c4ccc(NS(=O)(=O)c5ccc(N[C@H](CCN(C)C)CSc6ccccc6)c([N+](=O)[O-])c5)cc4)CC3)c2)c(C(=O)O)n1C` [Compound 6], the “Apoptosis induction in H146 xenograft tumor tissues” value [7] is listed as “fails to induce robust apoptosis”, the Ki (Bcl-xL [8]) is listed as < 0.001 µM and the Ki (Bcl-xL [6]; read-out: Binding Affinities Bcl-xL Ki ± SD, FP competitive binding) is listed as < 0.001 µM.

In the case of `CN1CCN(CCCNC(=O)c2c(-c3ccccc3)c(-c3ccc(Cl)cc3)cn2CC[C@H](O)CO)CC1` [Compound 7, reference compound], the IC50 ([9]; Homo sapiens, NCI-H1417, read-out: Cell Growth Inhibition (IC50 ± SD) H1417) is reported as > 10 µM and the IC50 ([10]; Homo sapiens, NCI-H146, read-out: Cell Growth Inhibition (IC50 ± SD) H146) is reported as > 10 µM.

In the case of `CN(C)CC[C@H](CSc1ccccc1)Nc1ccc(S(=O)(=O)NC(=O)c2ccc(N3CCN(Cc4ccccc4-c4ccc(Cl)cc4)CC3)cc2)cc1[N+](=O)[O-]` [Compound 1, reference compound], the “Cell death induction in H146” value (H146 cell line [4]) is reported as “effectively induce cell death in H146 in a dose-dependent manner” and the “Cleavage of caspase-3 and PARP in H146” value (H146 cell line [5]) is reported as “induce cleavage of caspase-3 and poly (ADP- ribose) polymerase (PARP) in a dose-dependent manner”.

In the case of “(R)-5-(4-Chlorophenyl)-4-(3-(4-(4-(((4-((4-(dimethylamino)-1-(phenylthio)butan-2-yl)amino)phenyl)sulfonyl)carbamoyl)phenyl)piperazin-1-yl)phenyl)-1,2-dimethyl-N-(3-(4-methylpiperazin-1-yl)propyl)-1H-pyrrole-3-carboxamide [Compound 9]”, the IC50 ([9]; read-out: Cell Growth Inhibition (IC50 ± SD) H1417, H1417) is reported as > 10 µM, the IC50 [11] is reported as > 10 µM and the IC50 ([10]; read-out: Cell Growth Inhibition (IC50 ± SD) H146, H146) is reported as > 10 µM.

For `Cc1c(C(=O)O)c(-c2cccc(N3CCN(c4ccc(NS(=O)(=O)c5ccc(N[C@H](CCN(C)C)CSc6ccccc6)c([N+](=O)[O-])c5)cc4)CC3)c2)c(-c2ccc(Cl)cc2)n1C` [Compound 12, (R)-5-(4-Chlorophenyl)-4-(3-(4-(4-(4-((4-(dimethylamino)-1-(phenylthio)butan-2-yl)amino)-3-nitrophenylsulfonamido)phenyl)piperazin-1-yl)phenyl)-1,2-dimethyl-1H-pyrrole-3-carboxylic acid], the “Cell death induction in H146” value (H146 cell line [4]) was “effectively induce cell death in H146 in a dose-dependent manner”, the “Cleavage of caspase-3 and PARP in H146” value (H146 cell line [5]) was “induce cleavage of caspase-3 and poly (ADP- ribose) polymerase (PARP) in a dose-dependent manner” and the “times more potent than compound 10 in cell growth inhibition” value [1] was 2–4 times.

For `Cc1cc(-c2cccc(N3CCN(c4ccc(NS(=O)(=O)c5ccc(N[C@H](CCN(C)C)CSc6ccccc6)c([N+](=O)[O-])c5)cc4)CC3)c2)c(-c2ccc(Cl)cc2)n1C` [Compound 13, (R)-N-(4-(4-(3-(2-(4-Chlorophenyl)-1,5-dimethyl-1H-pyrrol-3-yl)phenyl)piperazin-1-yl)phenyl)-4-((4-(dimethylamino)-1-(phenylthio)butan-2-yl)amino)-3-nitrobenzenesulfonamide], the “times less potent than 12 in binding to Bcl-2” value (Bcl-2 [2]) was 100 times.
